Test results from PubChem BioAssay (NCI).
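Results reflect a 48-hour exposure of cells in 96-well plates to compound at five concentrations. TGI: concentration producing complete growth inhibition.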

Tests used:
Assay in all cases: NCI-60 cell line screen, 48 h
SK-MEL-5 melanoma = tested on: SK-MEL-5 melanoma
A549 NSCLC = tested on: A549 NSCLC
HOP-62 NSCLC = tested on: HOP-62 NSCLC
M14 melanoma = tested on: M14 melanoma
T-47D breast = tested on: T-47D breast
SK-MEL-2 melanoma = tested on: SK-MEL-2 melanoma
PC-3 prostate = tested on: PC-3 prostate
U251 CNS = tested on: U251 CNS
SK-OV-3 ovarian = tested on: SK-OV-3 ovarian
ACHN renal = tested on: ACHN renal
K-562 leukemia = tested on: K-562 leukemia
SNB-75 CNS = tested on: SNB-75 CNS

| Compound | TGI (SK-MEL-5 melanoma) | TGI (A549 NSCLC) | TGI (HOP-62 NSCLC) | TGI (M14 melanoma) | TGI (T-47D breast) | TGI (SK-MEL-2 melanoma) | TGI (PC-3 prostate) | TGI (U251 CNS) | TGI (SK-OV-3 ovarian) | TGI (ACHN renal) | TGI (K-562 leukemia) | TGI (SNB-75 CNS) |
| --- | --- | --- | --- | --- | --- | --- | --- | --- | --- | --- | --- | --- |
| Nc1cc(CO)cc(Nc2c3ccccc3nc3occc23)c1 | 58.9 µM | > 100 µM | > 100 µM | 93.2 µM | 80.3 µM | 73.9 µM | > 100 µM | > 100 µM | > 100 µM | > 100 µM | – | – |
| Cc1ccc2c3c1O[C@H]1c4nc5ccccc5cc4C[C@@]4(O)[C@@H](C2)N(CC2CC2)CC[C@]314 | 19.2 µM | 26.8 µM | 31.3 µM | 25.9 µM | 32.2 µM | 35.5 µM | 26.5 µM | 18.7 µM | 31.3 µM | 23.4 µM | 23 µM | – |
| Clc1ccc(OCc2nnc(CCCCCCCCc3nnc(COc4ccc(Cl)cc4Cl)o3)o2)c(Cl)c1 | > 100 µM | > 100 µM | – | > 100 µM | – | > 100 µM | > 100 µM | > 100 µM | > 100 µM | > 100 µM | > 100 µM | > 100 µM |
| CCOC(=O)/C=C(/C(=O)OCC)n1cc(C)c(=O)n(Cc2cnnn2CCCCOC(C)=O)c1=O | 83.4 µM | > 100 µM | > 100 µM | – | 71.1 µM | > 100 µM | > 100 µM | > 100 µM | > 100 µM | 23.9 µM | > 100 µM | > 100 µM |
| CC(=O)C(=C(I)I)c1ccccc1 | 28.5 µM | 56.2 µM | 38.7 µM | 31.6 µM | 50.4 µM | 53.6 µM | 83.8 µM | 35.7 µM | > 100 µM | 35.2 µM | 53.5 µM | – |
| O=C(CCCC(=O)N1CC(CCl)c2ccc([N+](=O)[O-])cc21)N1CC(CCl)c2ccc([N+](=O)[O-])cc21 (centres undefined) | > 100 µM | 92.4 µM | > 100 µM | > 100 µM | > 100 µM | > 100 µM | > 100 µM | > 100 µM | > 100 µM | > 100 µM | > 100 µM | – |
| COc1cccc(/C=C/C2=NN(c3cccc(S(=O)(=O)O)c3)C3(C2)SCC(=O)N3c2nc3ccccc3s2)c1 (centres undefined) | > 100 µM | > 100 µM | – | > 100 µM | 52.8 µM | > 100 µM | > 100 µM | > 100 µM | – | > 100 µM | > 100 µM | > 100 µM |
| CN(C)c1ccc(C(c2ccc(N(C)C)cc2)c2ccc([N+](=O)[O-])cc2)cc1 | > 100 µM | > 100 µM | > 100 µM | > 100 µM | > 100 µM | > 100 µM | > 100 µM | > 100 µM | > 100 µM | > 100 µM | > 100 µM | – |
| CN(C)Cc1cc(C(=O)/C=C/c2ccc(/C=C/C(=O)c3cc(CN(C)C)c(O)c(CN(C)C)c3)cc2)cc(CN(C)C)c1O | > 100 µM | > 100 µM | > 100 µM | 46.8 µM | > 100 µM | > 100 µM | 49.6 µM | 47 µM | – | > 100 µM | > 100 µM | > 100 µM |
| CN(C)c1ccc(/C=C2\N=C(c3ccccc3)N(c3nc4c(Cl)cc(Cl)cc4s3)C2=O)cc1 | > 100 µM | > 100 µM | > 100 µM | > 100 µM | > 100 µM | > 100 µM | > 100 µM | > 100 µM | > 100 µM | > 100 µM | > 100 µM | – |
| COc1ccc(CNc2nc3ccccc3nc2-c2cccs2)cc1 | > 100 µM | > 100 µM | > 100 µM | – | > 100 µM | – | – | > 100 µM | > 100 µM | > 100 µM | > 100 µM | > 100 µM |
| O=S1(=O)c2ccccc2N2CCCc3cc(Cl)cc1c32 | > 100 µM | > 100 µM | > 100 µM | > 100 µM | – | > 100 µM | > 100 µM | – | > 100 µM | > 100 µM | > 100 µM | 29.9 µM |
| CCOC(=O)/C(=C\c1ccc(CO)o1)P(=O)(OCC)OCC | > 100 µM | > 100 µM | > 100 µM | 98 µM | > 100 µM | 92.2 µM | > 100 µM | > 100 µM | > 100 µM | > 100 µM | – | > 100 µM |
| OC1CN=C2c3ccccc3C(O)(c3ccc(Cl)cc3)N2C1 (centres undefined) | – | > 100 µM | > 100 µM | 30.4 µM | > 100 µM | > 100 µM | > 100 µM | > 100 µM | > 100 µM | > 100 µM | > 100 µM | 91.9 µM |
| CCCCCC(C)C[C@H]1CO[C@H](c2ccc[nH]2)N[C@H]1C(=O)OC (some centres undefined) | > 100 µM | > 100 µM | > 100 µM | > 100 µM | > 100 µM | > 100 µM | > 100 µM | > 100 µM | > 100 µM | > 100 µM | – | – |
| O=C(c1ccco1)N(C(=S)N1CCN(c2ccccc2)CC1)c1ccccc1 | > 100 µM | > 100 µM | > 100 µM | > 100 µM | – | > 100 µM | – | > 100 µM | > 100 µM | > 100 µM | > 100 µM | > 100 µM |
| O=[N+]([O-])C(=C(NCc1ccccc1)NCc1ccccc1)C(Cl)=C(Cl)Cl | 36 µM | > 100 µM | > 100 µM | 75.8 µM | 92.9 µM | – | > 100 µM | – | > 100 µM | 55.9 µM | 54.2 µM | 43.5 µM |
| O=C1CC(c2cccc(Cl)c2)n2cccc21 (centres undefined) | – | > 100 µM | > 100 µM | > 100 µM | > 100 µM | > 100 µM | > 100 µM | > 100 µM | > 100 µM | > 100 µM | > 100 µM | > 100 µM |
| CC(Nc1cc(Cl)cc(Cl)c1)c1ccncc1 (centres undefined) | 28.7 µM | > 100 µM | 33.5 µM | 33.4 µM | > 100 µM | – | 36.7 µM | 35.2 µM | – | 67.6 µM | > 100 µM | 63.1 µM |
| COc1cc(C(C#N)NNC(=O)c2ccccc2O)ccc1O (centres undefined) | > 100 µM | > 100 µM | > 100 µM | > 100 µM | – | > 100 µM | – | > 100 µM | > 100 µM | > 100 µM | > 100 µM | 8.46 µM |
